Some test systems named below: 786-0; EKVX; HCT-116; HCT-15; HOP-62; IGROV-1; NCI-H23; NCI/ADR-RES; OVCAR-8; PC-3; RPMI-8226; RXF 393; SW-620; T47D; NCI-H226; SK-OV-3; SK-MEL-2.
Holding throughout (assay): growth of human tumour cells (NCI), 48 h

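How tested: cells in 96-well plates exposed to compound for 48 hours at five concentrations. GI50: concentration for 50% inhibition of growth.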 Active and inactive are the calls of the source. No stated cut-off is given here; in the data, active = GI50 up to about 1.1 µM and inactive = higher. A value given as a limit tells only on which side of the number the result lay.

In the case of `Cc1nc2ccc(F)cc2c2c1CCS2`, the GI50 in the experiment on 786-0 was 78.7 µM (inactive); in the experiment on EKVX, 26.2 µM (inactive); in the experiment on HCT-116, 46.6 µM (inactive); in the experiment on HCT-15 it was more than 100 µM; in the experiment with HOP-62 it was 57.4 µM (inactive); in the experiment with IGROV-1, > 100 µM (inactive). Moreover, the GI50 with NCI-H23 is > 100 µM (inactive); with NCI/ADR-RES it was 95.1 µM (inactive); with OVCAR-8, 69.3 µM (inactive); in the experiment with PC-3 it was 41.1 µM (inactive); in the experiment with RPMI-8226, 38.8 µM (inactive); in the experiment on RXF 393, 18.5 µM (inactive). Besides, the GI50 in the experiment on SW-620 was > 100 µM (inactive); in the experiment with T47D, 33.7 µM (inactive).
For `O=C(CC1C=CCS1(=O)=O)NCc1ccccc1` (configuration not stated), the GI50 with 786-0 was > 100 µM (inactive); in the experiment on EKVX it was > 100 µM (inactive); with HCT-116, > 100 µM (inactive); with HCT-15, more than 100 µM; in the experiment with HOP-62, > 100 µM (inactive); in the experiment on IGROV-1, > 100 µM (inactive). Also, the GI50 in the experiment with NCI-H226, in the experiment with NCI-H23, in the experiment on NCI/ADR-RES, in the experiment on OVCAR-8, in the experiment with PC-3 and with RXF 393 was > 100 µM (inactive) in each case. The GI50 in the experiment on SK-OV-3, with SW-620 and with T47D was > 100 µM (inactive) each time.
As for `O=C(O)c1ccccc1/N=N/c1c(O)c(S(=O)(=O)O)cc2cc(S(=O)(=O)O)ccc12`, the GI50 is > 100 µM (inactive) in the experiment with 786-0; > 100 µM (inactive) in the experiment with EKVX; > 100 µM (inactive) with HCT-116; more than 100 µM with HCT-15; > 100 µM (inactive) in the experiment on HOP-62; > 100 µM (inactive) with IGROV-1. The GI50 in the experiment on NCI-H226, in the experiment on NCI-H23, with NCI/ADR-RES, in the experiment on OVCAR-8, in the experiment on PC-3 and with RXF 393 was > 100 µM (inactive) each time. Further, the GI50 in the experiment with SK-MEL-2, in the experiment on SK-OV-3, in the experiment on SW-620 and with T47D was > 100 µM (inactive) throughout.
As for `COc1ccc(N2C(=O)C3c4[nH]c5ccc(C)cc5c4C4CCC(C(C)(C)C)CC4C3C2=O)cc1` (configuration not stated), the GI50 in the experiment with 786-0 is 20.4 µM (inactive); in the experiment with EKVX, 31 µM (inactive); in the experiment with HCT-116, 7.66 µM (inactive); in the experiment with HCT-15 it was 27.5 µM; with HOP-62, 13.6 µM (inactive); in the experiment on IGROV-1, 38.9 µM (inactive). Further, the GI50 with NCI-H226 is 21.1 µM (inactive); in the experiment with NCI-H23, 22.3 µM (inactive); in the experiment on NCI/ADR-RES, 13.3 µM (inactive); in the experiment on OVCAR-8 it was 6.21 µM (inactive); in the experiment on PC-3, 24.1 µM (inactive); in the experiment with RPMI-8226, 11.2 µM (inactive). The GI50 was 16.9 µM (inactive) with RXF 393, 12.4 µM (inactive) with SK-OV-3, 5.58 µM (inactive) in the experiment with SW-620 and 35.2 µM (inactive) in the experiment on T47D.
As for `CCOC(=O)c1nc2ccc(C(F)(F)F)cc2nc1Nc1cc(OC)c(OC)c(OC)c1`, the GI50 was > 100 µM (inactive) in the experiment with 786-0; > 100 µM (inactive) with EKVX; > 100 µM (inactive) in the experiment with HCT-116; more than 100 µM in the experiment on HCT-15; > 100 µM (inactive) in the experiment on HOP-62; > 100 µM (inactive) in the experiment on IGROV-1. The GI50 in the experiment with NCI-H23, in the experiment on NCI/ADR-RES, in the experiment on OVCAR-8, in the experiment with PC-3, in the experiment on RPMI-8226 and in the experiment on RXF 393 was > 100 µM (inactive) each time. For the same molecule, the GI50 with SK-OV-3, in the experiment with SW-620 and with T47D was > 100 µM (inactive) throughout.
Take `CC(=O)c1cccc(Nc2nc3ccccc3c3occc23)c1`: the GI50 was 16.7 µM (inactive) in the experiment with 786-0; 22 µM (inactive) in the experiment on EKVX; 18.2 µM (inactive) in the experiment with HCT-116; 36.4 µM in the experiment with HCT-15; 14 µM (inactive) in the experiment on HOP-62; 2.03 µM (inactive) in the experiment on NCI-H226. Moreover, the GI50 is 16.7 µM (inactive) in the experiment on NCI-H23; 23 µM (inactive) with NCI/ADR-RES; 20.4 µM (inactive) with OVCAR-8; 31.3 µM (inactive) with PC-3; > 100 µM (inactive) in the experiment with RPMI-8226; 10.8 µM (inactive) in the experiment on RXF 393. The results for the GI50 in the experiment with SK-OV-3 and in the experiment with T47D were 17.8 µM (inactive) and 21 µM (inactive), respectively.
Turning to `CCn1c(=O)c2c3ccc(OC)cc3[nH]c2c2ccc(OC)cc21`, the GI50 in the experiment on 786-0 was 0.0426 µM (active); in the experiment on EKVX, 57.8 µM (inactive); in the experiment with HCT-116 it was 30.2 µM (inactive); in the experiment with HCT-15 it was 41.2 µM; in the experiment on HOP-62, 37.5 µM (inactive); with IGROV-1 it was > 100 µM (inactive). For the same molecule, the GI50 was > 100 µM (inactive) with NCI-H226; > 100 µM (inactive) with NCI-H23; 32.9 µM (inactive) with NCI/ADR-RES; 73.3 µM (inactive) in the experiment with OVCAR-8; 39.2 µM (inactive) in the experiment on PC-3; 29.3 µM (inactive) in the experiment with RXF 393. In addition, the GI50 is 80.7 µM (inactive) with SK-OV-3, 57.3 µM (inactive) in the experiment with SW-620 and 24.6 µM (inactive) in the experiment with T47D.
Turning to `Clc1ccc(-c2nnc3sc4nc5ccccc5c-4nn23)c(Cl)c1`, the GI50 is 52.6 µM (inactive) with 786-0; 28.8 µM (inactive) with EKVX; 40.7 µM (inactive) in the experiment on HCT-116; 34.9 µM in the experiment with HCT-15; 67 µM (inactive) with HOP-62; 64.3 µM (inactive) in the experiment on NCI-H226. In addition, the GI50 in the experiment with NCI-H23 is 29 µM (inactive); in the experiment on NCI/ADR-RES, 34.4 µM (inactive); with OVCAR-8, 50 µM (inactive); with PC-3, 43.3 µM (inactive); in the experiment with RXF 393, 78.9 µM (inactive); in the experiment on SK-MEL-2 it was 30.6 µM (inactive). Moreover, the figures for the GI50 with SK-OV-3, in the experiment with SW-620 and in the experiment on T47D were 95.1 µM (inactive), 46 µM (inactive) and 59.2 µM (inactive), respectively.
In the case of `CC(C)(C)C(=O)Oc1ccc(/C=C/C(=O)c2ccc(OC(=O)C(C)(C)C)cc2)cc1`, the GI50 in the experiment on 786-0 was 36.7 µM (inactive); with EKVX it was 81.1 µM (inactive); with HCT-116, 23.3 µM (inactive); in the experiment with HCT-15 it was 96.4 µM; with HOP-62 it was 82.2 µM (inactive); in the experiment with IGROV-1, > 100 µM (inactive). In addition, the GI50 was > 100 µM (inactive) in the experiment on NCI-H226; 35.7 µM (inactive) in the experiment with NCI-H23; 27.5 µM (inactive) in the experiment on NCI/ADR-RES; 40.4 µM (inactive) in the experiment on OVCAR-8; > 100 µM (inactive) in the experiment on PC-3; 38.8 µM (inactive) with RXF 393. Further, the GI50 in the experiment on SK-MEL-2 was > 100 µM (inactive); in the experiment on SK-OV-3, > 100 µM (inactive); in the experiment with SW-620, > 100 µM (inactive); in the experiment on T47D, 91.2 µM (inactive).
For `CC1(C)CC[C@]2(C)[C@@H](O)C[C@]3(C)C(=CC[C@@H]4[C@@]5(C)CC[C@H](O)C(C)(C)[C@@H]5CC[C@]43C)[C@@H]2C1`, the GI50 in the experiment on 786-0 was 33.3 µM (inactive); in the experiment on EKVX, 38.8 µM (inactive); with HCT-116, 41.5 µM (inactive); in the experiment with HCT-15, 81.1 µM; in the experiment with HOP-62, 37 µM (inactive); in the experiment with IGROV-1, 35.9 µM (inactive). Moreover, the GI50 is 35 µM (inactive) with NCI-H226; 29.4 µM (inactive) in the experiment on NCI-H23; 40 µM (inactive) in the experiment on NCI/ADR-RES; 20.3 µM (inactive) in the experiment with OVCAR-8; 29 µM (inactive) with PC-3; 7.24 µM (inactive) in the experiment on RXF 393. In addition, the GI50 in the experiment on SK-MEL-2 is 26.4 µM (inactive); in the experiment with SK-OV-3 it was 14.9 µM (inactive); with SW-620, > 100 µM (inactive); in the experiment on T47D, 9.79 µM (inactive).
